Results reported in DBAASP.
Converted amounts (≈) assume the structure as drawn.

Legend:
Experiment in all cases: ≥ marks a high value that may be exact or a test limit, other limits are often not marked, values filed in µg/mL are converted to µM
[1] = tested on: Bacillus subtilis ATCC 23857
[2] = tested on: Candida albicans ATCC 10231
[3] = tested on: Escherichia coli ATCC 25922
[4] = tested on: Staphylococcus aureus USA 300
[5] = tested on: Pseudomonas aeruginosa PAO1
[6] = tested on: Klebsiella pneumoniae ATCC 13883
[7] = tested on: Pseudomonas aeruginosa ATCC 27853
[8] = tested on: Klebsiella pneumoniae ATCC 700603
[9] = tested on: Staphylococcus aureus ATCC 25923
[10] = tested on: Escherichia coli ATCC 25726
[11] = tested on: Candida albicans ATCC 90028
[12] = tested on: Staphylococcus epidermidis ATCC 12228
[13] = tested on: Staphylococcus aureus ATCC BAA-1556
Micrococcus luteus A270 = tested on: Micrococcus luteus A270
Listeria innocua = tested on: Listeria innocua
Escherichia coli = tested on: Escherichia coli
[14] = tested on: Pseudomonas aeruginosa ATCC 9027
[15] = tested on: Staphylococcus aureus NCTC 8325

N=C(N)NCCC[C@H](NC(=O)[C@H](CCCNC(=N)N)NC(=O)[C@H](Cc1ccccc1)NC(=O)[C@H](Cc1ccccc1)NC(=O)[C@H](CCCNC(=N)N)NC(=O)[C@H](CCCNC(=N)N)NC(=O)[C@H](Cc1ccccc1)NC(=O)[C@H](Cc1ccccc1)NC(=O)[C@H](CCCNC(=N)N)NC(=O)[C@H](CCCNC(=N)N)NC(=O)[C@H](Cc1ccccc1)NC(=O)[C@H](Cc1ccccc1)NC(=O)[C@H](CCCNC(=N)N)NC(=O)[C@H](CCCNC(=N)N)NC(=O)[C@H](Cc1ccccc1)NC(=O)[C@@H](N)Cc1ccccc1)C(N)=O [FFRRFFRRFFRRFFRR]
MIC [1]: 8.18 µM (≈ 20 µg/mL) | MIC [2]: > 20.5 µM

CC[C@H](C)[C@H](NC(=O)CN)C(=O)N[C@H](C(=O)N[C@@H](C)C(=O)NCC(=O)N[C@H](C(=O)N[C@H](C(=O)N[C@H](C(=O)N[C@@H](CCCCN)C(=O)N[C@H](C(=O)N[C@@H](C)C(=O)N[C@@H](CCCCN)C(N)=O)[C@@H](C)CC)[C@@H](C)CC)[C@@H](C)CC)[C@@H](C)CC)[C@@H](C)CC [GIIAGIIIKIAK]
MIC [1]: ≥ 128 µM | MIC [3]: > 128 µM

CC(C)C[C@H](NC(=O)[C@H](CCCCN)NC(=O)CNC(=O)[C@H](CC(C)C)NC(=O)[C@H](CC(C)C)NC(=O)[C@H](CC(C)C)NC(=O)[C@H](CO)NC(=O)[C@H](CC(C)C)NC(=O)[C@H](CC(C)C)NC(=O)[C@H](CC(C)C)NC(=O)[C@H](CO)NC(=O)[C@H](CC(C)C)NC(=O)CN)C(N)=O [GLSLLLSLLLGKL]
MIC [4]: 6.2 µM (≈ 8.3 µg/mL) | MIC [5]: > 25 µM | MIC [3]: > 25 µM | MIC [6]: 25 µM (≈ 33.5 µg/mL)

CC[C@H](C)[C@H](NC(=O)[C@H](CCC(=O)O)NC(=O)CNC(=O)[C@H](CC(C)C)NC(=O)[C@H](Cc1ccccc1)NC(=O)[C@H](C)NC(=O)[C@H](CCCCN)NC(=O)CNC(=O)[C@H](Cc1ccccc1)NC(=O)[C@H](CCCCN)NC(=O)CNC(=O)[C@H](C)NC(=O)[C@H](CO)NC(=O)[C@H](Cc1cnc[nH]1)NC(=O)[C@H](CC(C)C)NC(=O)[C@@H](NC(=O)[C@H](CCCCN)NC(=O)[C@H](CO)NC(=O)[C@@H](NC(=O)CN)C(C)C)[C@@H](C)CC)C(=O)N[C@@H](CCSC)C(=O)N[C@@H](CCCCN)C(=O)N[C@@H](CO)C(=O)O [GVSKILHSAGKFGKAFLGEIMKS]
MIC [7]: 200 µM (≈ 481 µg/mL) | MIC [8]: 100 µM (≈ 241 µg/mL) | MIC [9]: > 100 µM | MIC [3]: 50 µM (≈ 120 µg/mL) | MIC [10]: ≥ 100 µM

CC[C@H](C)[C@H](N)C(=O)N[C@@H](CCCCN)C(=O)N[C@H](C(=O)N1CCC[C@H]1C(=O)N[C@@H](C)C(=O)N[C@H](C(=O)N[C@H](C(=O)N[C@@H](CCCCN)C(=O)N[C@@H](CC(=O)O)C(=O)N[C@H](C(=O)N[C@@H](CC(C)C)C(=O)N[C@@H](CCCCN)C(=O)N[C@@H](CCCCN)C(=O)N[C@H](C(=O)N[C@@H](C)C(=O)N[C@@H](CCCCN)C(=O)NCC(=O)N[C@H](C(=O)N[C@@H](CC(C)C)C(=O)N[C@@H](CO)C(=O)N[C@@H](C)C(=O)N[C@H](C(=O)N[C@@H](C)C(=O)NCC(=O)N[C@@H](C)C(=O)N[C@@H](CC(C)C)C(=O)N[C@H](C(=O)N[C@@H](CCC(N)=O)C(=O)O)[C@@H](C)O)C(C)C)C(C)C)C(C)C)[C@@H](C)O)C(C)C)C(C)C)[C@@H](C)CC [IKIPAVVKDTLKKVAKGVLSAVAGALTQ]
MIC [7]: 40 µM (≈ 113 µg/mL) | MIC [8]: 40 µM (≈ 113 µg/mL) | MIC [9]: 40 µM (≈ 113 µg/mL) | MIC [11]: ≥ 80 µM | MIC [10]: 20 µM (≈ 56.4 µg/mL)

CC[C@H](C)[C@H](N)C(=O)N[C@@H](CC(C)C)C(=O)NCC(=O)N[C@H](C(=O)N[C@H](C(=O)N[C@@H](CC(C)C)C(=O)NCC(=O)N[C@@H](CC(C)C)C(=O)N[C@@H](CC(C)C)C(=O)N[C@@H](CCCCN)C(=O)N[C@@H](CC(N)=O)C(=O)N[C@@H](CC(C)C)C(N)=O)[C@@H](C)CC)[C@@H](C)O [ILGTILGLLKNL]
MIC [9]: 8 µM (≈ 10.1 µg/mL) | MIC [1]: 4 µM (≈ 5.07 µg/mL) | MIC [12]: 4 µM (≈ 5.07 µg/mL) | MIC [3]: 32 µM (≈ 40.5 µg/mL)

CC[C@H](C)[C@H](N)C(=O)N[C@@H](CC(C)C)C(=O)NCC(=O)N[C@H](C(=O)N[C@H](C(=O)N[C@@H](CC(C)C)C(=O)NCC(=O)N[C@@H](CC(C)C)C(=O)N[C@@H](CC(C)C)C(=O)N[C@@H](CCCCN)C(=O)N[C@H](C(=O)N[C@@H](CC(C)C)C(N)=O)[C@@H](C)O)[C@@H](C)CC)[C@@H](C)O [ILGTILGLLKTL]
MIC [9]: 8 µM (≈ 10 µg/mL) | MIC [1]: 4 µM (≈ 5.01 µg/mL) | MIC [12]: 4 µM (≈ 5.01 µg/mL) | MIC [3]: 64 µM (≈ 80.2 µg/mL)

CC(C)C[C@H](NC(=O)[C@H](CC(C)C)NC(=O)[C@H](Cc1c[nH]c2ccccc12)NC(=O)[C@H](CCCCN)NC(=O)[C@H](CC(C)C)NC(=O)[C@H](CC(C)C)NC(=O)[C@H](CCCCN)NC(=O)[C@@H](N)CCCCN)C(=O)N[C@@H](CCCCN)C(N)=O [KKLLKWLLK]
MIC [13]: ≥ 100 µM

CC(C)C[C@H](NC(=O)[C@H](CC(C)C)NC(=O)[C@H](CC(C)C)NC(=O)[C@H](CC(C)C)NC(=O)[C@H](CCCCN)NC(=O)[C@H](CC(C)C)NC(=O)[C@H](CC(C)C)NC(=O)[C@H](CC(C)C)NC(=O)[C@@H](N)CCCCN)C(N)=O [KLLLKLLLL]
MIC [13]: ≥ 100 µM

CC(C)C[C@H](NC(=O)[C@H](CC(C)C)NC(=O)[C@H](CO)NC(=O)[C@H](Cc1cnc[nH]1)NC(=O)[C@H](CO)NC(=O)[C@H](CC(C)C)NC(=O)[C@H](CC(C)C)NC(=O)[C@@H](N)CCCCN)C(=O)O [KLLSHSLL]
MIC (Micrococcus luteus A270): ≥ 34 µM | MIC (Listeria innocua): ≥ 34 µM | MIC (Escherichia coli): 68 µM (≈ 61.9 µg/mL)

CC[C@H](C)[C@H](NC(=O)[C@H](Cc1c[nH]c2ccccc12)NC(=O)[C@H](CCCN=C(N)N)NC(=O)[C@H](CCCN=C(N)N)NC(=O)[C@H](Cc1c[nH]c2ccccc12)NC(=O)[C@@H](N)CCCCN)C(=O)N[C@@H](CCCN=C(N)N)C(=O)N[C@@H](Cc1c[nH]c2ccccc12)C(N)=O [KWRRWIRW]
MIC [13]: 12.5 µM (≈ 16.1 µg/mL)

CC(C)C[C@H](NC(=O)[C@H](CCCCN)NC(=O)[C@H](CCCCN)NC(=O)[C@H](CC(C)C)NC(=O)[C@H](CC(C)C)NC(=O)[C@H](CC(C)C)NC(=O)[C@H](CC(C)C)NC(=O)[C@H](CC(C)C)NC(=O)[C@@H](N)CC(C)C)C(N)=O [LLLLLLKKL]
MIC [13]: ≥ 100 µM

CC[C@H](C)[C@H](NC(=O)[C@H](CCCCN)NC(=O)[C@H](CCCCN)NC(=O)[C@H](C)NC(=O)[C@@H](NC(=O)[C@H](C)NC(=O)[C@H](CC(C)C)NC(=O)[C@H](CC(C)C)NC(=O)[C@H](C)NC(=O)[C@H](CCCCN)NC(=O)[C@H](CC(C)C)NC(=O)[C@H](CC(N)=O)NC(=O)[C@@H](N)CC(C)C)C(C)C)C(N)=O [LNLKALLAVAKKI]
MIC [14]: 32 µM (≈ 44.6 µg/mL) | MIC [8]: 64 µM (≈ 89.2 µg/mL) | MIC [9]: 64 µM (≈ 89.2 µg/mL) | MIC [1]: 16 µM (≈ 22.3 µg/mL) | MIC [3]: 16 µM (≈ 22.3 µg/mL)

CC[C@H](C)[C@H](NC(=O)[C@H](CCCCN)NC(=O)[C@H](CCCCN)NC(=O)[C@H](C)NC(=O)[C@H](CC(C)C)NC(=O)[C@H](CC(N)=O)NC(=O)[C@@H](NC(=O)[C@H](CC(C)C)NC(=O)[C@@H](NC(=O)CNC(=O)[C@H](CC(C)C)NC(=O)[C@H](Cc1ccccc1)NC(=O)[C@@H](N)CC(N)=O)[C@@H](C)O)C(C)C)C(=O)N[C@@H](CC(C)C)C(N)=O [NFLGTLVNLAKKIL]
MIC [9]: 16 µM (≈ 24.7 µg/mL) | MIC [11]: ≥ 80 µM | MIC [3]: 40 µM (≈ 61.7 µg/mL) | MIC [10]: ≥ 64 µM | MIC [15]: 20 µM (≈ 30.9 µg/mL)

CC[C@H](C)[C@H](NC(=O)[C@H](CCCN=C(N)N)NC(=O)[C@@H](NC(=O)[C@@H](NC(=O)[C@H](CCCCN)NC(=O)[C@@H](NC(=O)[C@H](CC(C)C)NC(=O)[C@@H](NC(=O)[C@@H](NC(=O)[C@H](CCCCN)NC(=O)[C@H](CCCN=C(N)N)NC(=O)[C@H](Cc1ccc(O)cc1)NC(=O)CNC(=O)[C@H](Cc1cnc[nH]1)NC(=O)[C@H](CC(N)=O)NC(=O)[C@@H](N)C(C)C)C(C)C)[C@@H](C)O)[C@@H](C)O)[C@@H](C)O)C(C)C)C(=O)N[C@@H](CCCCN)C(=O)N[C@@H](CCCCN)C(=O)N[C@@H](Cc1ccccc1)C(=O)N[C@@H](CCSC)C(=O)O [VNHGYRKVTLTKTVRIKKFM]
MIC [4]: ≥ 128 µM

CC(C)C[C@H](NC(=O)[C@H](CO)NC(=O)[C@H](C)NC(=O)[C@H](Cc1cnc[nH]1)NC(=O)[C@@H](NC(=O)[C@H](C)NC(=O)[C@@H]1CCCN1C(=O)[C@@H](NC(=O)[C@H](Cc1ccccc1)NC(=O)[C@H](CC(=O)O)NC(=O)[C@H](CO)NC(=O)[C@@H]1CCCN1C(=O)[C@H](CC(C)C)NC(=O)[C@H](Cc1cnc[nH]1)NC(=O)[C@H](CO)NC(=O)[C@H](C)NC(=O)[C@H](CC(C)C)NC(=O)[C@@H](NC(=O)[C@@H](N)C(C)C)[C@@H](C)O)[C@@H](C)O)C(C)C)C(=O)N[C@@H](CC(=O)O)C(=O)N[C@@H](CCCCN)C(=O)N[C@@H](Cc1ccccc1)C(=O)O [VTLASHLPSDFTPAVHASLDKF]
MIC (Micrococcus luteus A270): ≥ 53 µM | MIC (Listeria innocua): ≥ 53 µM | MIC (Escherichia coli): 26 µM (≈ 61.2 µg/mL)
